Molecules are shown by their SMILES. ≈ marks a conversion by molar mass, not a printed value. Where two headings read alike, the source gives them in different places. Peptide text beside a SMILES is read from it. * marks the point of attachment. X3 = O=C(CCCCCCCCCC[P+](c1ccccc1)(c1ccccc1)c1ccccc1)*

This is an account of results in PMC10818380, “Triphenylphosphonium Analogs of Short Peptide Related to Bactenecin 7 and Oncocin 112 as Antimicrobial Agents” (Pharmaceutics, 2024).

Test [1] concerns B. subtilis 168. Set-up: method as in PMID 33922611. As to conditions: cited from earlier work.
Test [2] has as its system B. subtilis CFR. As to conditions: cited from earlier work.
Test [3] has as its system E. coli JW5503 (∆tolC) (KanS) pDualrep2. The test can be described thus: pDualrep2 double-reporter agar plate test. To be noted: 1 µL of 10 mM solution on agar plate. The format is cell-based. How it is done:
The “pDualrep2” system was used to evaluate the mechanism of the antimicrobial action of the synthesized compounds. This system is based on the hypersensitive strain E. coli JW5503 (∆tolC) (KanS) transformed with the “pDualrep2” plasmid, which allows one to sort out suppressors of protein synthesis or SOS response inducers. Briefly, 1 µL of 10 mM water solutions of Bac(1–10), Bac(1–10, R/Y), Bac(1–10, R/Y)-Cn-TPP, TPP-C10-Bac(1–10, R/Y), and Onc112 were applied onto the agar plate that already contained a layer of the reporter strain E. coli JW5503 (∆tolC) (KanS) pDualrep2, and then the plate was incubated overnight at 37 °C. The agar plate was scanned using the ChemiDoc^TM Imaging System (Bio-Rad Laboratories, Hercules, CA, USA), containing two channels, “Cy3-blot” (553/574 nm; green pseudocolor) for Turbo Red Fluorescent Protein (TurboRFP) detection and “Cy5-blot” (588/633 nm; red pseudocolor) for Katushka2S fluorescence. […] Levofloxacin (LEV; 50 μg/mL, 1 μL) and erythromycin (ERY; 5 mg/mL, 1 μL) were utilized as positive controls for DNA and protein synthesis inhibitors, respectively.

Test [4] deals with A549. The test can be described thus: cells. To be noted: 72 h. The procedure:
(§1) The cytotoxicity of the substances under study was tested using the MTT (3-(4,5-dimethylthiazol-2-yl)-2,5-diphenyltetrazolium bromide) assay with some modifications. The detailed procedure for the MTT assay is given in the Supplementary Materials (Section S5).
(§2) Two thousand five hundred cells per well for the MCF7, HEK293T, and A549 cell lines or 4000 cells per well for the VA13 cell line were plated in 135 µL of DMEM-F12 media with 10% FBS (both Gibco, Waltham, MA, USA) in a 96-well plate and were incubated in a 5% CO2 incubator for the first 16 h, without treatment. Then 15 µL of media-DMSO solutions of the tested substances were added to the cells (the final DMSO concentrations in the media were 1% or less), and the cells were treated for 72 h with 25 nM–50 µM (eight dilutions) of the tested substances (triplicate each). Serial dilutions of DMSO and doxorubicin were used as controls. The MTT reagent (Paneco LLC, Moscow, Russia) was then added to the cells at a final concentration of 0.5 g/L (10× stock solution in PBS was used) and incubated for 2.5 h at 37 °C in the incubator under an atmosphere of 5%
(§3) CO2. The MTT solution was then discarded, and 140 µL of DMSO (PharmaMed LLC, Krasnodar, Russia) was added. The plates were swayed on a shaker (60 rpm) to dissolve the formazan. The absorbance was measured using the VICTOR X5 Multilabel Plate Reader (PerkinElmer, Wa l th a m, MA, USA) at a wavelength of 565 nm (in order to measure formazan concentration). The resu l ts were used to construct a dose-response graph and to estimate IC50 values.
(§4) Figure S11.The dependencies of viability of cells after treatment by tested compounds.
(§5) (1 picture or pasted object on this page, not shown here)

For test [5], the system named is VA13. The test can be described thus: cells. To be noted: 72 h. The format is cell-based, human. How it is done: as §1, §2, §3, §4, §5
Test [6] relates to HEK293T. The test can be described thus: cells. To be noted: 72 h. The format is cell-based, human. How it is done:
as §1, §2, §3, §4, §5

For test [7], the system named is MCF7. The test can be described thus: cells. The format is cell-based, human. To be noted: 72 h. How it is done:
as §1, §2, §3, §4, §5

For test [8], the system named is 70S E. coli ribosome. The test can be described thus: Competition-binding assay, displacement of BODIPY-Bac(1–10), fluorescence anisotropy. To be noted: CI (α = 0.05), read-out: apparent dissociation constant (KD). How it is done: 70S ribosomes were isolated from E. coli MRE600 cells according to a published procedure. The binding of BODIPY-Bac(1–10) to 70S E. coli ribosomes was performed according to the following procedure. BODIPY-Bac(1–10) (16 nM) was incubated with ribosomes (from 0.5 nM to 2000 nM) for 2 h at 26 °C in a buffer containing 20 mM of HEPES-KOH (pH 7.5), 50 mM of NH4Cl, 10 mM of Mg(CH3COO)2, 4 mM of β-mercaptoethanol, and 0.05% Tween-20. The binding affinities of peptides 1 and 2, their TPP analogs 3–5, as well as the control compounds for the E. coli ribosome were analyzed via a competition-binding assay using fluorescently labeled BODIPY-Bac(1–10) or BODIPY-ERY, as described before in [38, 54]. The fluorescent compound (16 nM) was mixed with ribosomes (84 nM for BODIPY-Bac(1–10) and 46 nM for BODIPY-ERY) in the buffer. Solutions of the tested compounds were added to the obtained complexes to final concentrations ranging from 0.01 to 100 µM. The mixtures were incubated for 2 h at 26 °C, and then the values of fluorescence anisotropy were measured with a VICTOR X5 Multilabel Plate Reader (PerkinElmer, Waltham, MA, USA) using a 384-well plate. The excitation wavelength was 485 nm, and the emission wavelength was 535 nm. From the data obtained, apparent dissociation constants were calculated.
In general terms: In fluorescence polarisation assays a small probe gives low polarisation when free and higher when bound to something large.

Test [9] has as its system B. subtilis 168. The test can be described thus: microbe, parasite or virus in culture. The format is cell-based. As to conditions: B. subtilis 168, 37 °C, 18 h. How it is done:
(§6) The MIC values for Bac(1–10), Bac(1–10, R/Y), Bac(1–10, R/Y)-Cn-TPP, TPP-C10-Bac(1–10, R/Y), and Onc112 were determined via LB broth microdilution, as recommended by CLSI in the Methods for Dilution Antimicrobial Susceptibility Tests for Bacteria that Grow Aerobically, Approved Standard, 9th ed., CLSI document M07-A9, using in-house-prepared panels. The compounds were diluted in a 96-well microtiter plate to final concentrations ranging from 0.1 to 100 µM in a 200 µL aliquot of the bacterial suspension, followed by incubation at 37 °C for 18 h. The cell concentration was estimated according to the absorbance (A600). The measurements were performed with a VICTOR X5 Multilabel Plate Reader (PerkinElmer, Waltham, MA, USA). The following bacterial strains were used: E. coli BW25113, E. coli JW0368 ΔsbmA, B. subtilis 168, and B. subtilis CFR [39].

For test [10], the system named is E. coli BW25113. The test can be described thus: microbe, parasite or virus in culture. The format is cell-based. As to conditions: E. coli BW25113, 37 °C, 18 h. The procedure:
as §6

Test [11] concerns B. subtilis CFR. The test can be described thus: microbe, parasite or virus in culture. To be noted: CFR, 18 h. The class given is cell-based. The procedure:
as §6

Test [12] has as its system E. coli JW0368 ΔsbmA. The test can be described thus: microbe, parasite or virus in culture. The format is cell-based. How it is done:
as §6

For test [13], the system named is bacterial translation (E. coli S30 extract). The test can be described thus: In vitro translation inhibition of firefly luciferase mRNA, E. coli S30 extract. The format is biochemical. To be noted: 30 µM. How it is done: Briefly, in vitro-transcribed firefly luciferase mRNA (fluc) was translated using the E. coli S30 Extract System for Linear Templates (Promega, Madison, WI, USA). Reaction mixtures (with a 5 μL total volume) supplemented with 0.1 mM of a mixture of all canonical amino acids, 4 U of RiboLock RNase Inhibitor (Thermo Fisher Scientific, Waltham, MA, USA), and 0.1 mM of D-luciferin (Sigma-Aldrich, Burlington, MA, USA) were pre-incubated at RT for 5 min after the addition of the tested compounds at a final concentration of 30 µM. Then, 50 ng of the mRNA was added to each reaction tube, and the mixtures were immediately subjected to continuous chemiluminescence measurements using the VICTOR X5 Multilabel Plate Reader (PerkinElmer, Waltham, MA, USA) at 37 °C for 30 min. The maximal rates of the firefly luciferase (Fluc) accumulation were calculated using the OriginPro 7.5 software. The values were normalized to a positive control (0.3% DMSO, assigned a value of 100%).

The test system of test [14] is B. subtilis. The test can be described thus: Membrane potential with fluorescent probe diS-C3-(5). The format is cell-based. To be noted: 2.5 µM, diS-C3-(5) fluorescence. How it is done: The membrane potential of B. subtilis was assessed by measuring the fluorescence emitted by the potential-dependent probe, diS-C3-(5). Bacterial cells derived from the overnight culture of B. subtilis were inoculated into a fresh LB medium and allowed to grow for 24 h until reaching an optical density of 0.8 at 600 nm. Subsequently, the bacteria were subjected to a 20-fold dilution in a buffer comprising 100 mM of KCl and 10 mM of Tris, adjusted to a pH of 7.4. Fluorescence measurements were conducted at 670 nm (with excitation at 630 nm) using a Fluorat-02-Panorama fluorimeter manufactured by Lumex Instruments in St. Petersburg, Russia.

Turning to `O=C(N[C@H](CO)[C@H](O)c1ccc([N+](=O)[O-])cc1)C(Cl)Cl` [Chloramphenicol], the MIC in test [1] was 12 µM (≈ 3.88 µg/mL); in test [2], 90 µM (≈ 29.1 µg/mL).

As a reminder, the IC50 is the concentration at which inhibition is half-maximal. A higher IC50 goes with a need for much substance. Consider `CC[C@H](C)[C@H](NC(=O)[C@H](CCCNC(=N)N)NC(=O)[C@H](CCCNC(=N)N)NC(=O)CCCCCCCCCC[P+](c1ccccc1)(c1ccccc1)c1ccccc1)C(=O)N[C@@H](CCCNC(=N)N)C(=O)N1CCC[C@H]1C(=O)N[C@@H](CCCNC(=N)N)C(=O)N1CCC[C@H]1C(=O)N1CCC[C@H]1C(=O)N[C@@H](Cc1ccc(O)cc1)C(=O)N[C@@H](CC(C)C)C(=O)O` [Compound 5, TPP-C10-Bac(1–10, R/Y)] (X3-RRIRPRPPYL-OH), for which the “inhibitory effect on growth of bacterial cells” value in test [3] is listed as “demonstrated an inhibitory effect on the growth of bacterial cells”. Also, the half-inhibitory concentration (IC50) in [4] was above 50 µM; in test [5], above 50 µM; in [6] it was 36 ± 4 µM; in test [7], above 20 µM. For the same compound, the Kd in test [8] stood at 0.16 ± 0.02 µM. The MIC in [9] turned out to be 12.5 µM; in test [10], 5.3 µM; in test [11], 12.5 µM; in test [12] (E. coli ∆sbmA, 37 °C, 18 h) it was 5.3 µM. Further, the “comparison of MIC values, E. coli ΔsbmA versus wild type” value in [12] (MIC values of Table 1) was “the same”. Besides, the “inhibition of bacterial translation of firefly luciferase (Fluc) mRNA” value in test [13] is given as “weakly inhibited”. Further, in test [14], the “effect on membrane potential of B. subtilis” value is “decrease in the membrane potential, to a somewhat lesser extent”.
